pEC50, pIC50: −log10 of the molar value. Read-outs that look alike come from different tables or passages of the source.

Assay [1] deals with NQO1 mRNA in BEAS-2B cells. Nature of the assay: Beas2B NQO1 mRNA cell based assay. Set-up: species or system human. To be noted: Homo sapiens, BEAS-2B. The gist of the method: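 BEAS-2B human bronchial epithelial cells exposed to compound for 24 h at 37 °C, 5% CO2. NQO1 mRNA measured by one-step TaqMan RT-qPCR on unpurified lysates, normalized to β-actin; relative expression by ΔΔCT method.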

The target of assay [2] is human KEAP1 (N-term, residues 321-609) (Homo sapiens, UniProt Q14145). Nature of the assay: biochemical.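 Note: fluorescence polarization competition assay of Kelch domain binding to NRF2, 12-point 1:3 dilution series from 10 µM, read after 1 h at room temperature, floor 10 nM.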
Setting [3] is: 24 h, 24 h compound treatment, increase in NQO1 mRNA vs vehicle (0.1% DMSO), read-out: EC50.

Chain of human KEAP1 (N-term, residues 321-609) (Q14145 321-609): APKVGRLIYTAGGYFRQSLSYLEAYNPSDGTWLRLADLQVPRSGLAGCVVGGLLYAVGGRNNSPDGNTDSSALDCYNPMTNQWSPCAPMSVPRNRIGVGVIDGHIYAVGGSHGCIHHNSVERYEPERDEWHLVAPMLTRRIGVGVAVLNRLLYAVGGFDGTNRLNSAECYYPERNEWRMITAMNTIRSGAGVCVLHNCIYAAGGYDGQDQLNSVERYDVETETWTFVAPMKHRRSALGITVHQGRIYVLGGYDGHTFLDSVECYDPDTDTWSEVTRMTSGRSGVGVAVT

As to `Cn1ncnc1COc1ccc(Br)c2c1[C@@H](CN1Cc3ccccc3C1=O)N(C(=O)[C@@H]1CCCC[C@@H]1C(=O)O)CC2` [Example 29, (1S,2R)-2-((S)-5-Bromo-8-((1-methyl-1H-1,2,4-triazol-5-yl)methoxy)-1-((1-oxoisoindolin-2-yl)methyl)-1,2,3,4-tetrahydroisoquinoline-2-carbonyl)cyclohexane-1-carboxylic acid], in assay [1] (setting [3]), the pEC50 is 7.00. The compound further showed a negative-log IC50 (pIC50) in assay [2] of 7.80.

Take `Cc1conc1COc1ccc(Cl)c2c1[C@@H](CN1CCCC1=O)N(C(=O)[C@@H]1CCCC[C@]1(C)C(=O)O)CC2` [Example 137, (1S,2R)-2-((S)-5-chloro-8-((4-methylisoxazol-3-yl)methoxy)-1-((2-oxopyrrolidin-1-yl)methyl)-1,2,3,4-tetrahydroisoquinoline-2-carbonyl)-1-methylcyclohexane-1-carboxylic acid]: the negative-log EC50 (pEC50) in assay [1] (setting [3]) is 8.17. Besides, the negative logarithm of the IC50 (pIC50) in assay [2] was 8.20.

With `C[C@@H]1CC(=O)N(C[C@@H]2c3c(OCc4cn(C)nn4)ccc(Cl)c3CCN2C(=O)[C@@H]2CCCC[C@]2(C)C(=O)O)C1` [Example 161, (1S,2R)-2-((S)-5-chloro-8-((1-methyl-1H-1,2,3-triazol-4-yl)methoxy)-(((R)-4-methyl-2-oxopyrrolidin-1-yl)methyl)-1,2,3,4-tetrahydroisoquinoline-2-carbonyl)-1-methylcyclohexane-1-carboxylic acid], in assay [1] (setting [3]), the negative logarithm of the EC50 (pEC50) is 7.96. The compound also showed a pIC50 in assay [2] of 8.10.

Consider `C[C@]1(C(=O)O)CCCC[C@H]1C(=O)N1CCc2c(Cl)ccc(OCc3nnn4c3COCC4)c2[C@H]1CN1CC2(CC2)CC1=O` [Example 189, (1S,2R)-2-((S)-5-chloro-8-((6,7-dihydro-4H-[1,2,3]triazolo[5,1-c][1,4]oxazin-3-yl)methoxy)-1-((6-oxo-5-azaspiro[2.4]heptan-5-yl)methyl)-1,2,3,4-tetrahydroisoquinoline-2-carbonyl)-1-methylcyclohexane-1-carboxylic acid], for which the pEC50 in assay [1] (setting [3]) was 9.57. This compound gave a negative logarithm of the IC50 (pIC50) in assay [2] of 8.30.

`CC(C)c1nc(COc2ccc(Br)c3c2[C@@H](CN2CCCC2=O)N(C(=O)[C@@H]2CCCC[C@@H]2C(=O)O)CC3)no1` [Example 66, (1S,2R)-2-((S)-5-bromo-8-((5-isopropyl-1,2,4-oxadiazol-3-yl)methoxy)-1-((2-oxopyrrolidin-1-yl)methyl)-1,2,3,4-tetrahydroisoquinoline-2-carbonyl) cyclohexane-1-carboxylic acid]: the pEC50 in assay [1] (setting [3]) is 7.57. This compound had a pIC50 in assay [2] of 8.24.

For `C[C@]1(C(=O)O)CCCC[C@H]1C(=O)N1CCc2c(Cl)ccc(OCc3ncsc3C(F)F)c2[C@H]1CN1CC2(CC2)CC1=O` [Example 204, (1S,2R)-2-((S)-5-chloro-8-((5-(difluoromethyl)thiazol-4-yl)methoxy)-1-((6-oxo-5-azaspiro[2.4]heptan-5-yl)methyl)-1,2,3,4-tetrahydroisoquinoline-2-carbonyl)-1-methylcyclohexane-1-carboxylic acid], the negative logarithm of the EC50 (pEC50) in assay [1] (setting [3]) is 7.89. The negative logarithm of the IC50 (pIC50) in assay [2] is 8.16.

As to `Cn1nnc(COc2ccc(Cl)c3c2[C@@H](CN2CCCC2=O)N(C(=O)[C@@H]2CC4CCC2(C(=O)O)CC4)CC3)c1C(F)F` [Example 141, (R)-2-((S)-5-chloro-8-((5-(difluoromethyl)-1-methyl-1H-1,2,3-triazol-4-yl)methoxy)-1-((2-oxopyrrolidin-1-yl)methyl)-1,2,3,4-tetrahydroisoquinoline-2-carbonyl)bicyclo[2.2.2]octane-1-carboxylic acid], in assay [1] (setting [3]), the negative-log EC50 (pEC50) is 7.46. For the same compound, in assay [2], the negative-log IC50 (pIC50) is 8.15.

For the compound `Cn1nnc(COc2ccc(Cl)c3c2[C@@H](CN2CC4(CC4)CC2=O)N(C(=O)[C@@H]2CCCC[C@]2(C)C(=O)O)CC3)c1C1COC1` [Example 199, (1S,2R)-2-((S)-5-chloro-8-((1-methyl-5-(oxetan-3-yl)-1H-1,2,3-triazol-4-yl)methoxy)-1-((6-oxo-5-azaspiro [2.4]heptan-5-yl)methyl)-1,2,3,4-tetrahydroisoquinoline-2-carbonyl)-1-methylcyclohexane-1-carboxylic acid], in assay [1] (setting [3]), the pEC50 is 9.47. Moreover, the pIC50 in assay [2] was 8.28.

Consider `O=C(O)[C@H]1CCCC[C@H]1C(=O)N1CCc2c(Br)ccc(O[C@H]3CCN(C(=O)c4cncs4)C3)c2[C@H]1CN1CCCC1=O` [Example 63, (1S,2R)-2-((S)-5-bromo-1-((2-oxopyrrolidin-1-yl)methyl)-8-(((S)-1-(thiazole-5-carbonyl)pyrrolidin-3-yl)oxy)-1,2,3,4-tetrahydroisoquinoline-2-carbonyl)cyclohexane-1-carboxylic acid], for which, in assay [1] (setting [3]), the negative logarithm of the EC50 (pEC50) was 7.08. Besides, the negative logarithm of the IC50 (pIC50) in assay [2] was 8.04.

Take `Cn1nnc(COc2ccc(Cl)c3c2[C@@H](CN2CCCC2=O)N(C(=O)[C@@H]2CCC[C@]2(C)C(=O)O)CC3)c1C(F)F` [Example 102, (1S,2R)-2-((S)-5-chloro-8-((5-(difluoromethyl)-1-methyl-1H-1,2,3-triazol-4-yl)methoxy)-1-((2-oxopyrrolidin-1-yl)methyl)-1,2,3,4-tetrahydroisoquinoline-2-carbonyl)-1-methylcyclopentane-1-carboxylic acid]: in assay [1] (setting [3]), the pEC50 was 9.00. This compound also showed a pIC50 in assay [2] of 8.32.

As to `C[C@]1(C(=O)O)CCCC[C@H]1C(=O)N1CCc2c(F)ccc(OCc3nnn4c3CCCC4)c2[C@H]1CN1CC2(CC2)CC1=O` [Example 182, (1S,2R)-2-((S)-5-fluoro-1-((6-oxo-5-azaspiro[2.4]heptan-5-yl)methyl)-8-((4,5,6,7-tetrahydro-[1,2,3]triazolo[1,5-a]pyridin-3-yl)methoxy)-1,2,3,4-tetrahydroisoquinoline-2-carbonyl)-1-methylcyclohexane-1-carboxylic acid], the pEC50 in assay [1] (setting [3]) is 9.08. The pIC50 in assay [2] was 8.29.

On to `Cn1ncc(COc2ccc(Cl)c3c2[C@@H](CN2CC4(CC4)CC2=O)N(C(=O)[C@@H]2CCCC[C@]2(C)C(=O)O)CC3)n1` [Example 206, (1S,2R)-2-((S)-5-chloro-8-((2-methyl-2H-1,2,3-triazol-4-yl)methoxy)-1-((6-oxo-5-azaspiro[2.4]heptan-5-yl)methyl)-1,2,3,4-tetrahydroisoquinoline-2-carbonyl)-1-methylcyclohexane-1-carboxylic acid], for which the negative-log EC50 (pEC50) in assay [1] (setting [3]) is 7.47. This compound also had a negative logarithm of the IC50 (pIC50) in assay [2] of 8.18.

Turning to `Cn1nnc(COc2ccc(Cl)c3c2[C@@H](CN2CCCC2=O)N(C(=O)[C@@H]2CCCC[C@]2(C)C(=O)O)CC3)c1C(F)(F)F` [Example 108, (1S,2R)-2-((S)-5-Chloro-8-((1-methyl-5-(trifluoromethyl)-1H-1,2,3-triazol-4-yl)methoxy)-1-((2-oxopyrrolidin-1-yl)methyl)-1,2,3,4-tetrahydroisoquinoline-2-carbonyl)-1-methylcyclohexane-1-carboxylic acid], the pEC50 in assay [1] (setting [3]) was 8.82. The pIC50 in assay [2] was 8.23.

Turning to `O=C(O)[C@H]1CCCC[C@H]1C(=O)N1CCc2c(Br)ccc(OCc3noc4ccccc34)c2[C@H]1CN1CCCC1=O` [Example 67], the pEC50 in assay [1] (setting [3]) was 8.32. This compound showed a pIC50 in assay [2] of 8.07.

`Cn1cnc2cc(COc3cccc4c3[C@@H](CN3C(=O)c5ccccc5C3=O)N(C(=O)[C@@H]3CCCC[C@@H]3C(=O)O)CC4)ccc21` [Example 10, (1S,2R)-2-((S)-1-((1,3-dioxoisoindolin-2-yl)methyl)-8-((1-methyl-1H-benzo[d]imidazol-5-yl)methoxy)-1,2,3,4-tetrahydroisoquinoline-2-carbonyl)cyclohexane-1-carboxylic acid]: the pEC50 in assay [1] (setting [3]) is 6.85; in assay [1] (NQO1 mRNA, on one test occasion, read-out: EC50 on one test occasion (footnote to Table 5)), less than 6.30. Further, the pIC50 in assay [2] was 7.82.

As for `C[C@]1(C(=O)O)CCCC[C@H]1C(=O)N1CCc2c(Cl)ccc(OCc3nnn4c3CCCC4)c2[C@H]1CN1CC2(CC2)CC1=O` [Example 170, (1S,2R)-2-((S)-5-chloro-1-((6-oxo-5-azaspiro[2.4]heptan-5-yl)methyl)-8-((4,5,6,7-tetrahydro-[1,2,3]triazolo[1,5-a]pyridin-3-yl)methoxy)-1,2,3,4-tetrahydroisoquinoline-2-carbonyl)-1-methylcyclohexane-1-carboxylic acid], in assay [1] (setting [3]), the pEC50 was 9.96. The same compound gave a negative-log IC50 (pIC50) in assay [2] of 8.18.

For the compound `C[C@@H]1CC(=O)N(C[C@@H]2c3c(OCc4nnn(C)c4C(F)F)ccc(Cl)c3CCN2C(=O)[C@@H]2CCCC[C@]2(C)C(=O)O)C1` [Example 111, (1S)-2-((S)-5-Chloro-8-((5-(difluoromethyl)-1-methyl-1H-1,2,3-triazol-4-yl)methoxy)-1-1-(((R)-4-methyl-2-oxopyrrolidin-1-yl)methyl)-1,2,3,4-tetrahydroisoquinoline-2-carbonyl)-1-methylcyclohexane-1-carboxylic acid], the pEC50 in assay [1] (setting [3]) was 8.60. This compound also gave a negative logarithm of the IC50 (pIC50) in assay [2] of 8.21.

Take `Cn1nnc2cc(COc3ccc(Br)c4c3[C@@H](CN3Cc5ccccc5C3=O)N(C(=O)[C@@H]3CCCC[C@@H]3C(=O)O)CC4)ccc21` [Example 38, (1S,2R)-2-((S)-5-bromo-8-((1-methyl-1H-benzo[d][1,2,3]triazol-5-yl)methoxy)-1-((1-oxoisoindolin-2-yl)methyl)-1,2,3,4-tetrahydroisoquinoline-2-carbonyl)cyclohexane-1-carboxylic acid]: in assay [1] (setting [3]), the negative logarithm of the EC50 (pEC50) is 7.77. In assay [2], the pIC50 is 8.03.

In the case of `Cc1cnoc1COc1ccc(Cl)c2c1[C@@H](CN1CCCC1=O)N(C(=O)[C@@H]1CCCC[C@]1(C)C(=O)O)CC2` [Example 126, (1S,2R)-2-((S)-5-chloro-8-((4-methylisoxazol-5-yl)methoxy)-1-((2-oxopyrrolidin-1-yl)methyl)-1,2,3,4-tetrahydroisoquinoline-2-carbonyl)-1-methylcyclohexane-1-carboxylic acid], the pEC50 in assay [1] (setting [3]) was 7.49. Moreover, the negative logarithm of the IC50 (pIC50) in assay [2] was 8.25.

Values taken from patent US12098148B2, “Therapeutic compounds” (C4X Discovery Limited, priority 2018, dated 2024).
